Experimental data taken from patent US8507550B2, “Treatment for altitudinal hypoxia” (AesRx LLC, priority 2010, dated 2013).

Legend:
[1] = test system: human subject; experiment: hypoxia induced by moderate exercise at elevated altitude in a human subject; assay type: in vivo; details: 3,000 meters altitude, at rest 3 hours and after one hour bike; dosage giving P50 of 18 mm Hg; day 2 (treated) vs day 1
Description: A 90 kg person in good health is transported from low elevation (<100 meters above sea level) to an altitude of 3,000 meters above sea level and kept at rest there for 3 hours. At that point, the subject is tested for respiration rate, heart rate and extremity O2. The subject is then put on a stationary exercise bike and allowed to ride the bike at a cadence of 40 rpm for one hour. The subject is again tested for respiration rate, heart rate and extremity O2. Then the subject is transported back to low elevation. […] The subject is kept at rest there for 3 hours, then tested for respiration rate, heart rate and extremity O2. The subject is then put on a stationary exercise bike and allowed to ride the bike at a cadence of 40 rpm for one hour. The subject is again tested for respiration rate, heart rate and extremity O2. The data from the two days are then compared.

[2] = test system: rats; details: females; cited from earlier work
[3] = test system: sickle cell disease mouse model; details: Abdulmalik 2004; cited from earlier work
[4] = test system: SCD Hb; details: sickle cell disease mouse model; Abdulmalik 2004; cited from earlier work

SMILES: O=Cc1ccc(CO)o1 [5-HMF, 5-hydroxymethyl-2-furfural]
- respiration rate, heart rate and extremity O2 [1]: closer to normal on day 2 than on day 1
- acute oral LD50 [2]: 2500 to 5000 mg/kg
- in vivo protection against the lethal effects of hypoxia [3]: provides in vivo protection against the lethal effects of hypoxia
- P50 of SCD Hb [4]: lower P50 (left shift)
